Measured values taken from patent publication US10238638B2, “Benzothiazole and benzothiophene compounds” (Bristol-Myers Squibb Company, priority 2015, dated 2019).

Biological target: PAR1 (Homo sapiens (Human), UniProt P25116)
Assay: not given
Conditions: ACS patients, phase III; cited from earlier work

Chain of PAR1 (P25116 22-425): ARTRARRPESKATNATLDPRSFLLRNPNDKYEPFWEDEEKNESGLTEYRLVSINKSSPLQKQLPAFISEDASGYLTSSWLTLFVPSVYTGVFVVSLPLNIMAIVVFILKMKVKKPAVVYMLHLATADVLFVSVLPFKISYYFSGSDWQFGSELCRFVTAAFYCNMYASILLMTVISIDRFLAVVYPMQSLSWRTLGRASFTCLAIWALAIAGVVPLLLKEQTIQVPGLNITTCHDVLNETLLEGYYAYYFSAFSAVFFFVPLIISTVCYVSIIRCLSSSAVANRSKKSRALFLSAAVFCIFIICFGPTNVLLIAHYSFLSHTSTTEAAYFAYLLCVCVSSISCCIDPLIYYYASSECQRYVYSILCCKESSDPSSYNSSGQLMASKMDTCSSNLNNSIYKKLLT

Row | SMILES | cardiovascular events | risk of major bleeding
1 | CCOC(=O)N[C@@H]1CC[C@@H]2[C@@H](C1)C[C@H]1C(=O)O[C@H](C)[C@H]1[C@H]2/C=C/c1ccc(-c2cccc(F)c2)cn1 [vorapaxar] | did not significantly reduce | significantly increased

Biological target: PAR4 (Homo sapiens (Human), UniProt Q96RI0)
Assay: FLIPR assay in PAR4-expressing HEK293 cells (calcium mobilization)
Type: cell-based
Conditions: H-Ala-Phe(4-F)-Pro-Gly-Trp-Leu-Val-Lys-Asn-Gly-NH2-induced calcium mobilization, PAR4 antagonist activity
Description: The FLIPR assay is an exemplary in vitro assay for measuring the activity of the PAR4 antagonists of the present invention. In this assay, intracellular calcium mobilization is induced in PAR4 expressing cells by a PAR4 agonist and calcium mobilization is monitored.
HEK293 cells stably expressing PAR4 were generated by a standard method of transfection of human PAR4 (F2R23) cDNA expression vector and selected based on PAR4 protein expression or mRNA expression. […] Therefore, the same cells were also used to determine selectivity against PAR1 and agonist activity for both receptors.
FLIPR-based calcium mobilization assay in HEK293 cells was used to measure PAR4 antagonism, agonism, and selectivity against PAR1. […] Counter screens for agonist activity and PAR1 antagonist activity were also performed. Briefly, PAR1/PAR4-expressing HEK293 cells were grown in DMEM (Life Technology, Grand Island, N.Y.) containing 10% heat-inactivated FBS, 1% Penicillin-Streptomycin, 10 μg/mL blasticidin, and 100 μg/mL Zeocin at 37° C. with 5% CO2. Cells were plated overnight prior to the experiment in a black 384-well Purecoat Amine clear bottom plate (Becton Dickinson Biosciences, San Jose, Calif.) at 10,000 cells/well in 30 μL growth medium and incubated in a humidified chamber at 37° C. with 5% CO2 overnight. Prior to compound addition, the cell medium was replaced with 40 μL of 1× calcium and magnesium-containing Hank's Balanced Saline Solution (HBSS) (with 20 mM HEPES) and 1:1000 diluted fluorescent calcium indicator (Codex Biosolutions, Gaithersburg, Md.). After a 30 minute incubation period at 37° C. and a further 30 minute incubation and equilibration period at room temperature, 20 μL test compound (diluted in 1×HBSS buffer) was added at various concentrations at 0.17% dimethyl sulfoxide (DMSO) final concentration. Changes in fluorescence intensity were measured using a Functional Drug Screening System (FDSS, Hamamatsu, Japan) to determine agonist activities. The cells were then incubated for 30 minutes at room temperature followed by addition of 20 μL of agonist peptide for antagonist activity measurement. […] Compound potency was derived from 11-point concentration-response curves.

Chain of PAR4 (Q96RI0 18-385): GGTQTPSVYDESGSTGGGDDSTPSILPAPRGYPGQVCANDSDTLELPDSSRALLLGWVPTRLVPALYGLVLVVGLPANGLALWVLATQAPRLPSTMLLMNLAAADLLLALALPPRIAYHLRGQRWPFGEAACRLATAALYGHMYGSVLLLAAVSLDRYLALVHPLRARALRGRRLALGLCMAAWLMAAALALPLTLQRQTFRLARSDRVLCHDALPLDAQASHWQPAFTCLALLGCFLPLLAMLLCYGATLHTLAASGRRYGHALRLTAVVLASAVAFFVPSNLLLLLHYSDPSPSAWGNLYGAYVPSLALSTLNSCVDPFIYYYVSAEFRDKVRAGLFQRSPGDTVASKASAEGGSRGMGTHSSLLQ

Row | SMILES | IC50
2 | COc1cc(OCc2csc(-c3ccc(C(=O)N(C)[C@H]4CCOC4)cc3)n2)c2sc(-c3cn4nc(C5CC5)sc4n3)nc2c1 [Example 25, (S)-4-(4-(((2-(2-Cyclopropylimidazo[2,1-b][1,3,4]thiadiazol-6-yl)-5-methoxybenzo[d]thiazol-7-yl)oxy)methyl)thiazol-2-yl)-N-methyl-N-(tetrahydrofuran-3-yl)benzamide] | 2.6 µM
3 | COc1cc(OCc2csc(-c3ccc(C(=O)N4CCC[C@H](O)C4)cc3)n2)c2sc(-c3cn4nc(C5CC5)sc4n3)nc2c1 [Example 26, (S)-(4-(4-(((2-(2-Cyclopropylimidazo[2,1-b][1,3,4]thiadiazol-6-yl)-5-methoxybenzo[d]thiazol-7-yl)oxy)methyl)thiazol-2-yl)phenyl)(3-hydroxypiperidin-1-yl)methanone] | 9.1 µM
4 | COc1cc(OCc2csc(-c3ccc(C(=O)N(C)CC#N)cc3)n2)c2sc(-c3cn4nc(C5CC5)sc4n3)nc2c1 [Example 27, N-(Cyanomethyl)-4-(4-(((2-(2-cyclopropylimidazo[2,1-b][1,3,4]thiadiazol-6-yl)-5-methoxybenzo[d]thiazol-7-yl)oxy)methyl)thiazol-2-yl)-N-methylbenzamide] | 1.2 µM
5 | COc1cc(OCc2csc(-c3ccc(C(=O)N(C)C)cc3)n2)c2sc(-c3cn4nc(C5CC5)sc4n3)nc2c1 [Example 28, 4-(4-(((2-(2-Cyclopropylimidazo[2,1-b][1,3,4]thiadiazol-6-yl)-5-methoxybenzo[d]thiazol-7-yl)oxy)methyl)thiazol-2-yl)-N,N-dimethylbenzamide] | 3.7 µM
6 | COc1cc(OCc2csc(-c3ccc(C(=O)N(CCO)C(C)(C)C)cc3)n2)c2sc(-c3cn4nc(C5CC5)sc4n3)nc2c1 [Example 29, N-(tert-Butyl)-4-(4-(((2-(2-cyclopropylimidazo[2,1-b][1,3,4]thiadiazol-6-yl)-5-methoxybenzo[d]thiazol-7-yl)oxy)methyl)thiazol-2-yl)-N-(2-hydroxyethyl)benzamide] | 80 µM
7 | CCc1nn2cc(-c3nc4cc(OC)cc(OCc5csc(-c6ccc(C(=O)OC(C)(C)C)cc6)n5)c4s3)nc2s1 [Example 31, tert-Butyl 4-(4-(((2-(2-ethylimidazo[2,1-b][1,3,4]thiadiazol-6-yl)-5-methoxybenzo[d]thiazol-7-yl)oxy)methyl)thiazol-2-yl)benzoate] | 2 µM
8 | CCc1nn2cc(-c3nc4cc(OC)cc(OCc5csc(-c6ccc(C(=O)NCC(C)(C)CO)cc6)n5)c4s3)nc2s1 [Example 32, 4-(4-(((2-(2-Ethylimidazo[2,1-b][1,3,4]thiadiazol-6-yl)-5-methoxybenzo[d]thiazol-7-yl)oxy)methyl)thiazol-2-yl)-N-(3-hydroxy-2,2-dimethylpropyl)benzamide] | 1.4 µM
9 | CCc1nn2cc(-c3nc4cc(OC)cc(OCc5csc(-c6ccc(C(=O)N(C)[C@H]7CCOC7)cc6)n5)c4s3)nc2s1 [Example 34, (S)-4-(4-(((2-(2-Ethylimidazo[2,1-b][1,3,4]thiadiazol-6-yl)-5-methoxybenzo[d]thiazol-7-yl)oxy)methyl)thiazol-2-yl)-N-methyl-N-(tetrahydrofuran-3-yl)benzamide] | 1.3 µM
10 | CCc1nn2cc(-c3nc4cc(OC)cc(OCc5csc(-c6ccc(C(=O)N(C)C)cc6)n5)c4s3)nc2s1 [Example 35, 4-(4-(((2-(2-Ethylimidazo[2,1-b][1,3,4]thiadiazol-6-yl)-5-methoxybenzo[d]thiazol-7-yl)oxy)methyl)thiazol-2-yl)-N,N-dimethylbenzamide] | 1.2 µM
11 | COc1cc(OCc2csc(-c3ccc(C(=O)N(C)C)cc3)n2)c2sc(-c3cn4nc(C)ccc4n3)nc2c1 [Example 44, 4-(4-(((5-Methoxy-2-(6-methylimidazo[1,2-b]pyridazin-2-yl)benzo[d]thiazol-7-yl)oxy)methyl)thiazol-2-yl)-N,N-dimethylbenzamide] | 2.6 µM
12 | COc1cc(OCc2csc(-c3ccccc3)n2)c2sc(-c3cn4nc(C)ccc4n3)nc2c1 [Example 45, 5-Methoxy-2-(6-methylimidazo[1,2-b]pyridazin-2-yl)-7-((2-phenylthiazol-4-yl)methoxy)benzo[d]thiazole] | 1.8 µM
13 | COc1cc(OCc2csc(N3CCOCC3)n2)c2sc(-c3cn4nc(C)ccc4n3)nc2c1 [Example 46, 4-(4-(((5-Methoxy-2-(6-methylimidazo[1,2-b]pyridazin-2-yl)benzo[d]thiazol-7-yl)oxy)methyl)thiazol-2-yl)morpholine] | 2.5 µM
14 | COc1cc(OCc2csc(-c3ccc(C(=O)N(C)[C@H]4CCOC4)cc3)n2)c2sc(-c3cn4nc(C)ccc4n3)nc2c1 [Example 47, (S)-4-(4-(((5-Methoxy-2-(6-methylimidazo[1,2-b]pyridazin-2-yl)benzo[d]thiazol-7-yl)oxy)methyl)thiazol-2-yl)-N-methyl-N-(tetrahydrofuran-3-yl)benzamide] | 6.4 µM
15 | COc1cc(OCc2csc(-c3ccc(C(=O)N4CCC[C@H](O)C4)cc3)n2)c2sc(-c3cn4nc(C)ccc4n3)nc2c1 [Example 48, (S)-(3-Hydroxypiperidin-1-yl)(4-(4-(((5-methoxy-2-(6-methylimidazo[1,2-b]pyridazin-2-yl)benzo[d]thiazol-7-yl)oxy)methyl)thiazol-2-yl)phenyl)methanone] | 9.9 µM

Continued, values first:

Row | IC50 | SMILES
16 | 3.6 µM | CCc1nn2cc(-c3nc4cc(OC)cc(OCc5csc(-c6ccc(C(=O)N7CCC[C@H](O)C7)cc6)n5)c4s3)nc2s1 [Example 33, (S)-(4-(4-(((2-(2-Ethylimidazo[2,1-b][1,3,4]thiadiazol-6-yl)-5-methoxybenzo[d]thiazol-7-yl)oxy)methyl)thiazol-2-yl)phenyl)(3-hydroxypiperidin-1-yl)methanone]
17 | 1.3 µM | CCc1nn2cc(-c3nc4cc(OC)cc(OCc5csc(-c6ccc(C(=O)N7CCC(CCO)CC7)cc6)n5)c4s3)nc2s1 [Example 36, (4-(4-(((2-(2-Ethylimidazo[2,1-b][1,3,4]thiadiazol-6-yl)-5-methoxybenzo[d]thiazol-7-yl)oxy)methyl)thiazol-2-yl)phenyl)(4-(2-hydroxyethyl)piperidin-1-yl)methanone]
18 | 1.6 µM | COc1cc(OCc2nc(-c3ccc(C(=O)N4CCC[C@H](O)C4)cc3)sc2C)c2sc(-c3cn4nc(C)sc4n3)nc2c1 [Example 38, (S)-(3-Hydroxypiperidin-1-yl)(4-(4-(((5-methoxy-2-(2-methylimidazo[2,1-b][1,3,4]thiadiazol-6-yl)benzo[d]thiazol-7-yl)oxy)methyl)-5-methylthiazol-2-yl)phenyl)methanone]
19 | 1.8 µM | COc1cc(OCc2nc(-c3ccc(C(=O)N(C)[C@H]4CCOC4)cc3)sc2C)c2sc(-c3cn4nc(C)sc4n3)nc2c1 [Example 39, (S)-4-(4-(((5-Methoxy-2-(2-methylimidazo[2,1-b][1,3,4]thiadiazol-6-yl)benzo[d]thiazol-7-yl)oxy)methyl)-5-methylthiazol-2-yl)-N-methyl-N-(tetrahydrofuran-3-yl)benzamide]
20 | 1.6 µM | COc1cc(OCc2nc(-c3ccc(C(=O)NCC(C)(C)CO)cc3)sc2C)c2sc(-c3cn4nc(C)sc4n3)nc2c1 [Example 40, N-(3-Hydroxy-2,2-dimethylpropyl)-4-(4-(((5-methoxy-2-(2-methylimidazo[2,1-b][1,3,4]thiadiazol-6-yl)benzo[d]thiazol-7-yl)oxy)methyl)-5-methylthiazol-2-yl)benzamide]
21 | 1.7 µM | COc1cc(OCc2nc(-c3ccc(C(=O)N(C)C)cc3)sc2C)c2sc(-c3cn4nc(C)sc4n3)nc2c1 [Example 41, 4-(4-(((5-Methoxy-2-(2-methylimidazo[2,1-b][1,3,4]thiadiazol-6-yl)benzo[d]thiazol-7-yl)oxy)methyl)-5-methylthiazol-2-yl)-N,N-dimethylbenzamide]
22 | 1.1 µM | COc1cc(OCc2nc(-c3ccc(C(=O)N4CCC(CCO)CC4)cc3)sc2C)c2sc(-c3cn4nc(C)sc4n3)nc2c1 [Example 42, (4-(2-Hydroxyethyl)piperidin-1-yl)(4-(4-(((5-methoxy-2-(2-methylimidazo[2,1-b][1,3,4]thiadiazol-6-yl)benzo[d]thiazol-7-yl)oxy)methyl)-5-methylthiazol-2-yl)phenyl)methanone]
23 | 0.93 µM | COc1cc(OCc2csc(-c3ccc(C(=O)N4CCC(C)(CO)CC4)cc3)n2)c2sc(-c3cn4nc(C)sc4n3)nc2c1 [Example 67]
